Test results from patent publication US20190076456A1, “COMPOSITIONS AND METHODS FOR LIVER DISEASES” (priority 2017, published 2019).
Where two headings read alike, the source gives them in different places.

Tests used:
alcohol hangover = assay: Nasal spray administration to a human subject with alcohol hangover; assay type: in vivo; details: 50 mg NAD+ per administration, three times in a day
Procedure: A subject, who is […] and suffers from alcohol hangover was administered by nasal spray a composition of invention (with a dosage of 50 mg NAD+ per administration) three times in a day.

[1] = cited from earlier work

NC(=O)c1ccc[n+]([C@@H]2O[C@H](COP(=O)([O-])OP(=O)(O)OC[C@H]3O[C@@H](n4cnc5c(N)ncnc54)[C@H](O)[C@@H]3O)[C@@H](O)[C@H]2O)c1 [NAD+, nicotinamide adenine dinucleotide]
symptoms of alcohol hangover (alcohol hangover): Significant improvement | stability of solution ([1]; 4° C. and neutral pH): stable for about a week | stability of solution ([1]; in acids or alkalis): decompose rapidly
